Measurements reported in patent publication US11098073B2, “Triphenylphosphonium-tethered tetracyclines for use in treating cancer” (Oxford University Innovation Limited, priority 2017, dated 2021).
Counter-ions that a name gives are not always drawn.

Tested on: MDA-231 cancer cells
Experiment: Inhibition of proliferation assay: cell confluence (IncuCyte live cell imaging)
Type: cell-based
Conditions: compound tested at 10 μM, images every 3 h over 4-5 d, relative confluence normalised to time zero
Source text: Inhibition of Proliferation Assay
The confluence value is a surrogate for cell proliferation and growth. The value is expressed as a percent confluence, which represents the fraction of culture dish-surface that is occupied by cells. As the number of cells in the dish increases over time due to proliferation, so will their coverage of that surface increase. Expansion of the cell population on the cell culture-dish surface and confluence have mostly a linear relationship until the cells on the plate surface begin to reach saturation or maximum density.
Confluence is determined based on image analysis. Image based software can identify objects in the image field base on changes to pixel density in a grey scale image. The software can then assign a mask to those pixels within the object. Objects can be ‘gated’ out based on size and shape. To determine cell confluence, images of cells are first masked as objects. The surface area of the image that is masked is measured and compared to the total surface area of the culture dish surface to obtain a percent confluence.
MDA-231 cancer cells were obtained from ATCC. Cells were cultured in Dulbecco's Modified Eagle Medium (DMEM) supplemented with 10% Fetal Bovine Serum (FBS), 2 mM Glutamax, 1 mM Non Essential Amino Acid (NEAA) solution and 1 mM sodium pyruvate. […] Final DMSO concentrations were […]. Images were acquired with an IncuCyte Live Cell Imaging microscopy (Essen Bioscience) at every 3 h under cell culture conditions with 10 OX objective over 4-5 d. Cell confluence was calculated from one field of view per well using the IncuCyte in-built algorithm. Relative confluence values were obtained by normalising each value to the time zero value in each sample.

SMILES	% Confluence [%]
C[C@H]1c2ccc(CNC(=O)CCCCC[P+](c3ccccc3)(c3ccccc3)c3ccccc3)c(O)c2C(=O)C2=C(O)[C@]3(O)C(=O)C(C(N)=O)=C(O)[C@@H](N(C)C)[C@@H]3[C@@H](O)[C@@H]21 [Example 16, trifluoroacetate]	116.3
C[C@H]1c2ccc(CNC(=O)CCCCCCC[P+](c3ccccc3)(c3ccccc3)c3ccccc3)c(O)c2C(=O)C2=C(O)[C@]3(O)C(=O)C(C(N)=O)=C(O)[C@@H](N(C)C)[C@@H]3[C@@H](O)[C@@H]21 [Example 17, trifluoroacetate]	79.4
C[C@H]1c2ccc(NC(=O)CCCCC[P+](c3ccccc3)(c3ccccc3)c3ccccc3)c(O)c2C(=O)C2=C(O)[C@]3(O)C(=O)C(C(N)=O)=C(O)[C@@H](N(C)C)[C@@H]3[C@@H](O)[C@@H]21.[Cl-] [Example 18]	59.1
C[C@H]1c2ccc(NC(=O)CCCCCC[P+](c3ccccc3)(c3ccccc3)c3ccccc3)c(O)c2C(=O)C2=C(O)[C@]3(O)C(=O)C(C(N)=O)=C(O)[C@@H](N(C)C)[C@@H]3[C@@H](O)[C@@H]21.[Cl-] [Example 19]	22.4
C[C@H]1c2ccc(NC(=O)CCCCCCCC[P+](c3ccccc3)(c3ccccc3)c3ccccc3)c(O)c2C(=O)C2=C(O)[C@]3(O)C(=O)C(C(N)=O)=C(O)[C@@H](N(C)C)[C@@H]3[C@@H](O)[C@@H]21.[Cl-] [Example 20]	25.2
